Values after ≈ are worked out from the molar mass of the structure shown.
Legend:
UACC-257 = experiment: Growth inhibition of human UACC257 cells assessed as cell growth at 10^-5 M incubated for 48 hrs by sulforhodamine B assay relative to control; type: cell-based; design: scale not given: the % may be the effect or the level left; details: uacc-257, 48 h, 10 µM
[1] = Cytotoxicity against mouse RAW264.7 cells; type: cell-based
ACHN = experiment: Growth inhibition of human ACHN cells assessed as cell growth at 10^-5 M incubated for 48 hrs by sulforhodamine B assay relative to control; type: cell-based; design: scale not given: the % may be the effect or the level left; details: 10 µM
A498 = experiment: Growth inhibition of human A498 cells assessed as cell growth at 10^-5 M incubated for 48 hrs by sulforhodamine B assay relative to control; type: cell-based; design: scale not given: the % may be the effect or the level left; details: a498, 48 h, 10 µM
Staphylococcus aureus [2] = experiment: Antibacterial activity against Staphylococcus aureus RCMB 010028 after 24 hrs by serial dilution method; type: functional; details: RCMB 010028, 24 h
Mycolicibacterium aurum = experiment: Antitubercular activity against Mycobacterium aurum infected in mouse RAW264.7 cells measured after 48 hrs; type: functional
MOLT-4 = experiment: Growth inhibition of human MOLT4 cells assessed as cell growth at 10^-5 M incubated for 48 hrs by sulforhodamine B assay relative to control; type: cell-based; design: scale not given: the % may be the effect or the level left; details: molt-4, 48 h, 10 µM
Pseudomonas aeruginosa [3] = experiment: Antibacterial activity against Pseudomonas aeruginosa RCMB 010043 after 24 hrs by serial dilution method; type: functional; details: RCMB 010043, 24 h
SK-MEL-28 = experiment: Growth inhibition of human SK-MEL-28 cells assessed as cell growth at 10^-5 M incubated for 48 hrs by sulforhodamine B assay relative to control; type: cell-based; design: scale not given: the % may be the effect or the level left; details: sk-mel-28, 48 h, 10 µM
BT-549 = experiment: Growth inhibition of human BT549 cells assessed as cell growth at 10^-5 M incubated for 48 hrs by sulforhodamine B assay relative to control; type: cell-based; design: scale not given: the % may be the effect or the level left; details: bt-549, 48 h, 10 µM
K562 = experiment: Growth inhibition of human K562 cells assessed as cell growth at 10^-5 M incubated for 48 hrs by sulforhodamine B assay relative to control; type: cell-based; design: scale not given: the % may be the effect or the level left; details: k562, 48 h, 10 µM
HT-29 = experiment: Growth inhibition of human HT-29 cells assessed as cell growth at 10^-5 M incubated for 48 hrs by sulforhodamine B assay relative to control; type: cell-based; design: scale not given: the % may be the effect or the level left; details: ht-29, 48 h, 10 µM
OVCAR-8 = experiment: Growth inhibition of human OVCAR8 cells assessed as cell growth at 10^-5 M incubated for 48 hrs by sulforhodamine B assay relative to control; type: cell-based; design: scale not given: the % may be the effect or the level left; details: ovcar-8, 48 h, 10 µM
SW-620 = experiment: Growth inhibition of human SW620 cells assessed as cell growth at 10^-5 M incubated for 48 hrs by sulforhodamine B assay relative to control; type: cell-based; design: scale not given: the % may be the effect or the level left; details: sw-620, 48 h, 10 µM
DU-145 = experiment: Growth inhibition of human DU145 cells assessed as cell growth at 10^-5 M incubated for 48 hrs by sulforhodamine B assay relative to control; type: cell-based; design: scale not given: the % may be the effect or the level left; details: du-145, 48 h, 10 µM
HOP-62 = experiment: Growth inhibition of human HOP62 cells assessed as cell growth at 10^-5 M incubated for 48 hrs by sulforhodamine B assay relative to control; type: cell-based; design: scale not given: the % may be the effect or the level left; details: hop-62, 48 h, 10 µM
OVCAR-3 = experiment: Growth inhibition of human OVCAR3 cells assessed as cell growth at 10^-5 M incubated for 48 hrs by sulforhodamine B assay relative to control; type: cell-based; design: scale not given: the % may be the effect or the level left; details: ovcar-3, 48 h, 10 µM
MCF7 = experiment: Growth inhibition of human MCF7 cells assessed as cell growth at 10^-5 M incubated for 48 hrs by sulforhodamine B assay relative to control; type: cell-based; design: scale not given: the % may be the effect or the level left; details: mcf7, 48 h, 10 µM
MDA-MB-468 = experiment: Growth inhibition of human MDA-MB-468 cells assessed as cell growth at 10^-5 M incubated for 48 hrs by sulforhodamine B assay relative to control; type: cell-based; design: scale not given: the % may be the effect or the level left; details: mda-mb-468, 48 h, 10 µM
Pseudomonas aeruginosa [4] = experiment: Potency index, ratio of ciprofloxacin MIC to compound MIC for Pseudomonas aeruginosa RCMB 010043; type: functional
Candida albicans = experiment: Antifungal activity against Candida albicans RCMB 05036 assessed as diameter of zone inhibition after 48 hrs by agar well diffusion assay; type: functional
Pseudomonas aeruginosa [5] = experiment: Antibacterial activity against Pseudomonas aeruginosa RCMB 010043 assessed as diameter of zone inhibition after 24 hrs by agar well diffusion assay; type: functional
T47D = experiment: Growth inhibition of human T47D cells assessed as cell growth at 10^-5 M incubated for 48 hrs by sulforhodamine B assay relative to control; type: cell-based; design: scale not given: the % may be the effect or the level left; details: 10 µM
KM12 = experiment: Growth inhibition of human KM12 cells assessed as cell growth at 10^-5 M incubated for 48 hrs by sulforhodamine B assay relative to control; type: cell-based; design: scale not given: the % may be the effect or the level left; details: km12, 48 h, 10 µM
NCI-H23 = experiment: Growth inhibition of human NCI-H23 cells assessed as cell growth at 10^-5 M incubated for 48 hrs by sulforhodamine B assay relative to control; type: cell-based; design: scale not given: the % may be the effect or the level left; details: nci-h23, 48 h, 10 µM
Escherichia coli = experiment: Potency index, ratio of ciprofloxacin MIC to compound MIC for Escherichia coli RCMB 010052; type: functional
[6] = Selectivity index, ratio of GI50 for mouse RAW264.7 cells to MIC for Mycobacterium aurum infected in mouse RAW264.7 cells; type: toxicity, cell-based; details: read-out: Selectivity Index
NCI-H322M = experiment: Growth inhibition of human NCI-H322M cells assessed as cell growth at 10^-5 M incubated for 48 hrs by sulforhodamine B assay relative to control; type: cell-based; design: scale not given: the % may be the effect or the level left; details: 10 µM
HCT-116 = experiment: Growth inhibition of human HCT116 cells assessed as cell growth at 10^-5 M incubated for 48 hrs by sulforhodamine B assay relative to control; type: cell-based; design: scale not given: the % may be the effect or the level left; details: hct-116, 48 h, 10 µM
SK-MEL-2 = experiment: Growth inhibition of human SK-MEL-2 cells assessed as cell growth at 10^-5 M incubated for 48 hrs by sulforhodamine B assay relative to control; type: cell-based; design: scale not given: the % may be the effect or the level left; details: sk-mel-2, 48 h, 10 µM
Aspergillus fumigatus = experiment: Antifungal activity against Aspergillus fumigatus RCMB 02568 after 24 hrs by serial dilution method; type: functional; details: RCMB 02568, 24 h
SR = experiment: Growth inhibition of human SR cells assessed as cell growth at 10^-5 M incubated for 48 hrs by sulforhodamine B assay relative to control; type: cell-based; design: scale not given: the % may be the effect or the level left; details: 10 µM
NCI/ADR-RES = experiment: Growth inhibition of human NCI/ADR-RES cells assessed as cell growth at 10^-5 M incubated for 48 hrs by sulforhodamine B assay relative to control; type: cell-based; design: scale not given: the % may be the effect or the level left; details: 10 µM
SF-295 = experiment: Growth inhibition of human SF295 cells assessed as cell growth at 10^-5 M incubated for 48 hrs by sulforhodamine B assay relative to control; type: cell-based; design: scale not given: the % may be the effect or the level left; details: sf-295, 48 h, 10 µM
Staphylococcus aureus [7] = experiment: Antibacterial activity against Staphylococcus aureus RCMB 010028 assessed as diameter of zone inhibition after 24 hrs by agar well diffusion assay; type: functional
NCI-H460 = experiment: Growth inhibition of human NCI-H460 cells assessed as cell growth at 10^-5 M incubated for 48 hrs by sulforhodamine B assay relative to control; type: cell-based; design: scale not given: the % may be the effect or the level left; details: nci-h460, 48 h, 10 µM
Hs-578T = experiment: Growth inhibition of human Hs 578T cells assessed as cell growth at 10^-5 M incubated for 48 hrs by sulforhodamine B assay relative to control; type: cell-based; design: scale not given: the % may be the effect or the level left; details: 10 µM

SMILES	Activity (UACC-257) [%]	GI50 [1] [µg/mL]	Activity (ACHN) [%]	Activity (A498) [%]	MIC (Staphylococcus aureus [2]) [µg/mL]	MIC (Mycolicibacterium aurum) [µg/mL]	Activity (MOLT-4) [%]	MIC (Pseudomonas aeruginosa [3]) [µg/mL]	Activity (SK-MEL-28) [%]	Activity (BT-549) [%]	Activity (K562) [%]	Activity (HT-29) [%]	Activity (OVCAR-8) [%]	Activity (SW-620) [%]	Activity (DU-145) [%]	Activity (HOP-62) [%]	Activity (OVCAR-3) [%]	Activity (MCF7) [%]	Activity (MDA-MB-468) [%]	Ratio (Pseudomonas aeruginosa [4])	other results
CCOC(=O)c1sc(/N=C2\NC(=O)/C(=C3/C(=O)N(Cc4ccccc4)c4ccc(Cl)cc43)S2)nc1C	106.14	62.5 (≈ 116 µM)	110.67	104.48	0.98 (≈ 1.82 µM)	50 (≈ 92.8 µM)	97.7	1.95 (≈ 3.62 µM)	113.38	103.71	101.93	100.13	103.48	98.41	104.75	98.01	105.46	97.06	108.31	2	diameter of the inhibition zone (DIZ) (Candida albicans): 21.7 mm; diameter of the inhibition zone (DIZ) (Pseudomonas aeruginosa [5]): 22.3 mm; Activity (T47D): 96.84%; Activity (KM12): 101.95%; Activity (NCI-H23): 96.32%; Ratio (Escherichia coli): 2; selectivity ratio [6]: 1.25; Activity (NCI-H322M): 111.22%; Activity (HCT-116): 96.07%; Activity (SK-MEL-2): 100.66%; MIC (Aspergillus fumigatus): 1.95 µg/mL (≈ 3.62 µM); Activity (SR): 102.18%; Activity (NCI/ADR-RES): 101.26%; Activity (SF-295): 103.03%; diameter of the inhibition zone (DIZ) (Staphylococcus aureus [7]): 22.5 mm; Activity (NCI-H460): 101.98%; Activity (Hs-578T): 94.4%
CC(=O)c1sc(/N=C2\NC(=O)/C(=C3/C(=O)N(C)c4ccc(Cl)cc43)S2)nc1C	114.2	125 (≈ 289 µM)	104.32	104.41	0.98 (≈ 2.26 µM)	25 (≈ 57.7 µM)	105.36	0.98 (≈ 2.26 µM)	99.13	94.91	100.75	98.45	117.64	119.01	100.78	116.23	96.17	86.13	94.2	4	diameter of the inhibition zone (DIZ) (Candida albicans): 24.1 mm; diameter of the inhibition zone (DIZ) (Pseudomonas aeruginosa [5]): 22.2 mm; Activity (T47D): 106.34%; Activity (KM12): 94.43%; Activity (NCI-H23): 96.3%; Ratio (Escherichia coli): 4; selectivity ratio [6]: 5; Activity (NCI-H322M): 96.29%; Activity (HCT-116): 94.04%; Activity (SK-MEL-2): 99.78%; MIC (Aspergillus fumigatus): 0.98 µg/mL (≈ 2.26 µM); Activity (SR): 115.03%; Activity (NCI/ADR-RES): 99.92%; Activity (SF-295): 101.25%; diameter of the inhibition zone (DIZ) (Staphylococcus aureus [7]): 22.4 mm; Activity (NCI-H460): 113.18%; Activity (Hs-578T): 115.73%
